Experimental data from the supplement of paper PMC10307832.

Key:
[1] = compound: Cn1nnc2c(C(N)=O)ncn2c1=O [Temozolomide] + Cc1cc(Nc2cc(N3CCN(C)CC3)nc(Sc3ccc(NC(=O)C4CC4)cc3)n2)n[nH]1 [Tozasertib] (partner 0.1 µM); test: relative viability (nuclei count vs DMSO), 5 days (fraction); higher = more cells survive
How it was run: (§1)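 Medians of duplicate plates are given as relative viability. That measure is the nuclei count in treated wells divided by the count in vehicle wells. Counts were taken on 4× images of lung cancer cell lines in 1536-well plates, 5 days after pin-tool dosing the day after seeding with one drug alone or a fixed anchor-drug dose plus five library-drug doses (not always all listed) in √10 steps.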

AZD5582 + Foretinib = compound: C[C@@H](C(=O)N[C@@H](C1CCCCC1)C(=O)N2CCC[C@H]2C(=O)N[C@@H]3[C@@H](CC4=CC=CC=C34)OCC#CC#CCO[C@@H]5CC6=CC=CC=C6[C@@H]5NC(=O)[C@@H]7CCCN7C(=O)[C@H](C8CCCCC8)NC(=O)[C@H](C)NC)NC [AZD5582] + COc1cc2c(Oc3ccc(NC(=O)C4(C(=O)Nc5ccc(F)cc5)CC4)cc3F)ccnc2cc1OCCCN1CCOCC1 [Foretinib] (partner 0.25 µM); test: as above
How it was run: as §1

| Cell Line | relative viability ([1]; first compound 0.2 µM) | relative viability ([1]; first compound 0.6325 µM) | relative viability ([1]; first compound 2 µM) | relative viability ([1]; first compound 6.325 µM) | relative viability ([1]; first compound 20 µM) | relative viability (AZD5582 + Foretinib; first compound 0.001581 µM) | relative viability (AZD5582 + Foretinib; first compound 0.005 µM) | relative viability (AZD5582 + Foretinib; first compound 0.01581 µM) | relative viability (AZD5582 + Foretinib; first compound 0.05 µM) |
| --- | --- | --- | --- | --- | --- | --- | --- | --- | --- |
| NCI-H650 | 0.704 | 0.771 | 0.735 | 0.681 | 0.804 | 1 | 0.958 | 0.91 | 0.794 |
| LC-2-ad | 0.429 | 0.517 | 0.505 | 0.41 | 0.422 | 0.933 | 1.16 | 0.829 | 0.923 |
| NCI-H1299 | – | – | – | – | – | 1.05 | 1.11 | 1.04 | 1.03 |
| NCI-H3122 | 0.257 | 0.482 | 0.47 | 0.356 | 0.46 | 0.977 | 0.994 | 0.933 | 0.602 |
| EBC-1 | – | – | – | – | – | 0.098 | 0.101 | 0.11 | 0.107 |
| NCI-H441 | 0.691 | 0.775 | 0.785 | 0.62 | 0.611 | 0.847 | 1.03 | – | 0.883 |
| LOU-NH91 | 0.548 | 0.728 | 0.687 | 0.641 | 0.482 | 0.858 | 0.861 | 0.934 | 0.949 |
| LXF-289 | 0.241 | 0.208 | 0.216 | 0.169 | 0.186 | 0.941 | 0.944 | 1.03 | 0.977 |
| HCC-827 | 0.428 | 0.436 | 0.409 | 0.458 | 0.114 | 0.936 | 1.06 | 1.04 | 0.999 |
| RERF-LC-KJ | 0.535 | 0.465 | 0.538 | 0.504 | 0.499 | 0.758 | 0.836 | 0.855 | 0.924 |
| NCI-H2228 | 0.246 | 0.322 | 0.206 | 0.212 | 0.251 | 0.843 | 1 | 0.788 | 0.472 |
| SW 1573 | 0.298 | 0.177 | 0.162 | 0.207 | 0.169 | 0.736 | 1 | 0.885 | 0.853 |
| ChaGo-K-1 | 0.263 | 0.209 | 0.3 | 0.191 | 0.226 | 0.882 | 0.9 | 0.83 | 1.1 |
| NCI-H1650 | 0.484 | 0.441 | 0.424 | 0.353 | 0.461 | 0.971 | 1.33 | 1.27 | 0.889 |
| HARA | 0.0933 | 0.112 | 0.107 | 0.11 | 0.108 | 0.858 | 0.918 | 0.904 | 0.639 |
| SW 900 | 0.63 | 0.703 | 0.498 | 0.542 | 0.462 | 0.866 | 0.666 | 0.895 | 0.451 |
| NCI-H520 | 0.474 | 0.441 | 0.462 | 0.428 | 0.426 | 0.651 | 0.777 | 0.81 | 0.697 |
| ABC-1 | 0.158 | 0.138 | 0.196 | 0.164 | 0.218 | 0.875 | 1.11 | 1.05 | 0.852 |
| NCI-H1734 | 0.305 | 0.251 | 0.242 | 0.284 | 0.278 | 0.814 | 0.892 | 0.968 | 1.11 |

| Cell Line | relative viability ([1]; first compound 0.2 µM) | relative viability ([1]; first compound 0.6325 µM) | relative viability ([1]; first compound 2 µM) | relative viability ([1]; first compound 6.325 µM) | relative viability ([1]; first compound 20 µM) | relative viability (AZD5582 + Foretinib; first compound 0.001581 µM) | relative viability (AZD5582 + Foretinib; first compound 0.005 µM) | relative viability (AZD5582 + Foretinib; first compound 0.01581 µM) | relative viability (AZD5582 + Foretinib; first compound 0.05 µM) |
| --- | --- | --- | --- | --- | --- | --- | --- | --- | --- |
| EKVX | 0.256 | 0.395 | 0.385 | 0.335 | 0.42 | 0.691 | 0.932 | 0.553 | 0.612 |
| NCI-H1915 | 0.482 | 0.417 | 0.471 | 0.317 | 0.268 | 1.06 | 1.09 | 1.13 | 1.09 |
| NCI-H1395 | 0.726 | 0.692 | 0.813 | 0.677 | 0.705 | 0.979 | 1.14 | 1.04 | 1.14 |
| HCC-366 | 0.097 | 0.0983 | 0.148 | 0.0779 | 0.15 | 0.947 | 0.978 | – | 1 |
| HCC-44 | 0.795 | 0.953 | 1.06 | 0.848 | 0.996 | – | – | – | – |
| COR-L 105 | 0.342 | 0.386 | 0.453 | 0.378 | 0.371 | 1.02 | 1.32 | 0.888 | 1.16 |
| LK-2 | 0.153 | 0.155 | 0.154 | 0.169 | 0.151 | 0.88 | 1.12 | 1.49 | 1.25 |
| LCLC-97TM1 | 0.186 | 0.242 | 0.212 | 0.184 | 0.191 | 0.913 | 0.94 | 0.908 | 0.958 |
| PC-3 [JPC-3] | 0.935 | 0.945 | 0.934 | 0.901 | 0.431 | 0.866 | 0.809 | 0.96 | 0.488 |
| NCI-H1975 | 0.975 | 0.718 | 0.823 | 0.699 | 0.737 | 0.926 | 1.17 | 1.06 | 1.2 |
| NCI-H647 | 0.263 | 0.307 | 0.412 | 0.148 | 0.147 | 1.08 | 1.16 | 1.1 | 1.21 |
| NCI-H838 | 0.267 | 0.286 | 0.309 | 0.264 | 0.254 | 0.985 | 1.19 | – | 1.06 |
| LCLC-103H | 0.486 | 0.481 | 0.566 | 0.456 | 0.413 | 0.699 | 0.725 | 0.681 | 0.581 |
| NCI-H2087 | 0.273 | 0.219 | 0.292 | 0.286 | 0.25 | 0.957 | 1.24 | 1.05 | 1.16 |
| NCI-H1648 | – | 0.525 | 0.397 | 0.448 | 0.435 | – | – | – | – |
| NCI-H1623 | – | 0.421 | 0.365 | 0.475 | 0.293 | 0.831 | 0.971 | 0.917 | 0.888 |
| NCI-H322M | – | 0.508 | 0.484 | 0.546 | 0.4 | 1.07 | 1.06 | – | 1.29 |
| PC-14 | 0.439 | 0.608 | 0.558 | 0.293 | 0.0992 | 0.903 | 1.06 | 0.938 | 0.945 |
| NCI-H460 | 0.441 | 0.418 | 0.518 | 0.368 | 0.339 | 0.916 | 1.03 | 0.952 | 0.97 |
